Results as given in patent US8754115B2, “Fungicidal pyrazoles” (E I du Pont de Nemours and Company, priority 2010, dated 2014).
Marks after values point to notes of the source that are not given here.

Columns and labels:
Type in all cases: in vivo
[1] = system: Blumeria graminis f. sp. tritici; experiment: Test F: preventive spray on wheat seedlings, visual disease rating (wheat powdery mildew)
Description: (§1) General protocol for preparing test suspensions for Tests A-F: the test compounds were first dissolved in acetone in an amount equal to 3% of the final volume and then suspended at the desired concentration (in ppm) in acetone and purified water (50/50 mix by volume) containing 250 ppm of the surfactant Trem® 014 (polyhydric alcohol esters). The resulting test suspensions were then used in Tests A-F. Spraying a 200 ppm test suspension to the point of run-off on the test plants was the equivalent of a rate of 800 g/ha. Unless otherwise indicated, the rating values indicate a 200 ppm test suspension was used. (An asterisk “*” next to the rating value indicates a 40 ppm test suspension was used.)
The test suspension was sprayed to the point of run-off on wheat seedlings. The following day the seedlings were inoculated with a spore dust of Blumeria graminis f. sp. tritici, (also known as Erysiphe graminis f. sp. tritici, the causal agent of wheat powdery mildew) and incubated in a growth chamber at 20° C. for 8 days, after which time visual disease ratings were made.
(§2) Results for Tests A-F are given in Table A. In the Table, a rating of 100 indicates 100% disease control and a rating of 0 indicates no disease control (relative to the controls). A dash (-) indicates no test results. An asterisk “*” next to the rating value indicates a 40 ppm test suspension was used.

[2] = system: Puccinia recondite f. sp. tritici; experiment: Test E2: preventive spray on wheat seedlings, visual disease rating (wheat leaf rust)
Description: as §1
The test suspension was sprayed to the point of run-off on wheat seedlings. The following day the seedlings were inoculated with a spore suspension of Puccinia recondite f. sp. tritici (the causal agent of wheat leaf rust) and incubated in a saturated atmosphere at 20° C. for 24 h, and then moved to a growth chamber at 20° C. for 7 days, after which time visual disease ratings were made.
as §2

Alternaria solani = experiment: Test B: preventive spray on tomato seedlings, visual disease rating (tomato early blight)
Description: as §1
(§3) The test suspension was sprayed to the point of run-off on tomato seedlings. The following day the seedlings were inoculated with a spore suspension of Alternaria solani (the causal agent of tomato early blight) and incubated in a saturated atmosphere at 27° C. for 48 h, and then moved to a growth chamber at 20° C. for 5 days, after which time visual disease ratings were made.
as §2

Septoria nodorum = experiment: Test C: preventive spray on wheat seedlings, visual disease rating (Septoria glume blotch)
Description: as §1
as §3, with “wheat” for “tomato”, “Septoria nodorum” for “Alternaria solani”, “Septoria glume blotch)” for “tomato early blight)”, “24°” for “27°”, “6” for “5”
as §2

[3] = system: Puccinia recondite f. sp. tritici; experiment: Test E1: curative spray on wheat seedlings after inoculation, visual disease rating (wheat leaf rust)
Description: as §1
Wheat seedlings were inoculated with a spore suspension of Puccinia recondite f. sp. tritici (the causal agent of wheat leaf rust) and incubated in a saturated atmosphere at 20° C. for 24 h, and then moved to a growth chamber at 20° C. for 2 days. After 2 days, the test suspension was sprayed to the point of run-off on the wheat seedlings, and then the seedlings were moved back to the growth chamber at 20° C. for 6 days. Upon removal, visual disease ratings were made.
as §2

Septoria tritici = experiment: Test D: preventive spray on wheat seedlings, visual disease rating (wheat leaf blotch)
Description: as §1
The test suspension was sprayed to the point of run-off on wheat seedlings. The following day the seedlings were inoculated with a spore suspension of Septoria tritici (the causal agent of wheat leaf blotch) and incubated in saturated atmosphere at 24° C. for 48 h, and then moved to a growth chamber at 20° C. for 19 days, after which time visual disease ratings were made.
as §2

Botrytis cinerea = experiment: Test A: preventive spray on tomato seedlings, visual disease rating (tomato Botrytis)
Description: as §1
as §3, with “Botrytis cinerea” for “Alternaria solani”, “Botrytis)” for “early blight)”, “in” for “in a”, “20°” for “27°”, “24°” for “20°”, “3” for “5”
as §2

[4] = asterisk: 40 ppm test suspension
[5] = no asterisk: standard test suspension, not 40 ppm
[6] = no asterisk: standard test suspension, not 40 ppm, 100 = 100% disease control, 0 = none

SMILES	Test F rating (% disease control) [1, 4]	Test E2 rating (% disease control) [2, 4]	Test C rating (% disease control) (Septoria nodorum; [4])	Test D rating (% disease control) (Septoria tritici; [4])	Test F rating (% disease control) [1, 5] [%]	Test E2 rating (% disease control) [2, 5] [%]	Test B rating (% disease control) (Alternaria solani; [5]) [%]	Test C rating (% disease control) (Septoria nodorum; [5]) [%]	Test D rating (% disease control) (Septoria tritici; [5]) [%]	Test A rating (% disease control) (Botrytis cinerea; [4])	other results
Cc1nn(C)c(-c2ccc(F)cc2F)c1C(O)c1ccc(F)cc1F (stereo not drawn) [Compound 72, α-(2,4-difluorophenyl)-5-(2,4-difluorophenyl)-1,3-dimethyl-1H-pyrazole-4-methanol]											pest or weed control at 40 ppm ([1]; Blumeria graminis, 192 h, asterisk: 40 ppm test suspension): 98%; pest or weed control at 40 ppm ([2]; 192 h, asterisk: 40 ppm test suspension): 96%; pest or weed control at 40 ppm (Alternaria solani; Alternaria solani, 168 h, asterisk: 40 ppm test suspension): 53%; pest or weed control at 40 ppm (Septoria nodorum; Parastagonospora nodorum, 192 h, asterisk: 40 ppm test suspension): 0%; pest or weed control at 40 ppm ([3]; 144 h, asterisk: 40 ppm test suspension): 18%; pest or weed control at 40 ppm (Septoria tritici; Zymoseptoria tritici, 504 h, asterisk: 40 ppm test suspension): 100%
Cc1nn(C)c(-c2c(F)cccc2Cl)c1C(F)c1c(F)cc(F)cc1F (stereo not shown) [Compound 75]	99* %	100* %	87* %	100* %							Test B rating (% disease control) (Alternaria solani; [4]): 100* %; Test E1 rating (% disease control) [3, 4]: 74* %
Cc1nn(C)c(-c2c(F)cccc2F)c1C(F)c1ccc(Cl)cc1Cl (stereo not shown) [Compound 92]	100* %	99* %	94* %	100* %							Test B rating (% disease control) (Alternaria solani; [4]): 99* %; Test E1 rating (% disease control) [3, 4]: 74* %
Cc1nn(C)c(-c2c(F)cccc2Cl)c1C(O)c1ccc(F)cc1Br (stereo not shown) [compound 37]					100	100	99	100	100		Test A rating (% disease control) (Botrytis cinerea; [6]): 100%
Cn1nc(Br)c(C(=O)c2ccc(F)cc2F)c1-c1ccc(F)cc1Cl [compound 48]					0	0	0	0	99		Test A rating (% disease control) (Botrytis cinerea; [6]): 26%
Cc1nn(C)c(-c2ccc(F)cc2Cl)c1Nc1ccc(F)cc1F [compound 49]	87* %	74* %	0* %	96* %						100* %	Test B rating (% disease control) (Alternaria solani; [4]): 0* %
Cc1nn(C)c(-c2c(Cl)cccc2Cl)c1C(O)c1c(F)cc(F)cc1F (stereo not shown) [compound 70]					99	100	99	60	100		Test E1 rating (% disease control) [3, 5]: 94%
Cc1nn(C)c(-c2ccc(F)cc2F)c1C(O)c1ccc(F)cc1Cl (stereo not shown) [compound 71]	99* %	99* %	73* %	100* %							Test B rating (% disease control) (Alternaria solani; [4]): 78* %; Test E1 rating (% disease control) [3, 4]: 88* %
Cc1nn(C)c(-c2ccc(F)cc2Br)c1C(=O)c1ccc(F)cc1F [compound 73]	34* %	0* %	0* %	14* %							Test B rating (% disease control) (Alternaria solani; [4]): 60* %; Test E1 rating (% disease control) [3, 4]: 0* %
Cc1nn(C)c(-c2c(Cl)cccc2Cl)c1C(O)c1ccc(F)cc1F (stereo not shown) [compound 74]					98	99	100	92	99		Test E1 rating (% disease control) [3, 5]: 0%
Cc1nn(C)c(-c2ccc(F)cc2Br)c1C(O)c1ccc(F)cc1F (stereo not shown) [compound 76]					100	100	99	60	100		Test E1 rating (% disease control) [3, 5]: 99%
Cc1nn(C)c(-c2c(Cl)cccc2Cl)c1C(O)c1ccc(Cl)cc1 (stereo not shown) [compound 77]					89	79	93	0	99		Test E1 rating (% disease control) [3, 5]: 0%
Cc1nn(C)c(-c2ccccc2I)c1C(=O)c1ccc(F)cc1Br [compound 81]					99	0	46	0	0		Test A rating (% disease control) (Botrytis cinerea; [6]): 54%
Cc1nn(C)c(-c2c(Cl)cncc2Cl)c1C(=O)c1ccc(F)cc1Cl [compound 96]	26* %	0* %	0* %	0* %						60* %	Test B rating (% disease control) (Alternaria solani; [4]): 0* %
Cn1nc(OC(F)F)c(C(O)c2ccc(F)cc2Cl)c1-c1c(F)cccc1F (stereo not shown) [compound 128]	56* %	85* %	0* %	100* %						43* %	
COc1nn(C)c(-c2c(F)cccc2Cl)c1C(O)c1ccc(F)cc1C (stereo not shown) [compound 140]	100* %	99* %	99* %	100* %						100* %	
COc1nn(C)c(-c2c(F)cc(F)cc2Cl)c1C(O)c1ccc(F)cc1Cl (stereo not shown) [compound 141]	99* %	99* %	97* %	100* %						100* %	
COc1ccc(C(O)c2c(OC)nn(C)c2-c2c(F)cccc2Cl)c(Cl)c1 (stereo not shown) [compound 142]	100* %	100* %	60* %	100* %						100* %	
COc1ccc(C(O)c2c(OC)nn(C)c2-c2c(F)cccc2Cl)c(F)c1 (stereo not shown) [compound 143]	98* %	99* %	0* %	100* %						100* %	
COc1nn(C)c(-c2c(F)cccc2Cl)c1C(O)c1c(F)ccc(F)c1Cl (stereo not shown) [compound 144]	98* %	100* %	0* %	100* %						78* %	
COc1nn(C)c(-c2c(F)cccc2Cl)c1C(O)c1c(F)ccc(F)c1F (stereo not shown) [compound 145]	73* %	82* %	0* %	35* %						26* %	
COc1cc(F)c(-c2c(C(O)c3ccc(F)cc3F)c(C)nn2C)c(F)c1 (stereo not shown) [compound 172]	100* %	100* %		100* %						99* %	
COc1cc(F)c(-c2c(C(O)c3c(F)cc(F)cc3F)c(C)nn2C)c(F)c1 (stereo not shown) [compound 173]	95* %	100* %		100* %						87* %	
